# Measurements published in US20150266864A1, “HETEROAROMATIC COMPOUNDS, METHOD FOR PREPARING THE COMPOUNDS, PHARMACEUTICAL COMPOSITIONS, USES AND METHOD FOR TREATING ACUTE AND CHRONIC PAIN” (CRISTÁLIA PRODUTOS QUÍMICOS FARMACÊUTICOS LTDA, priority 2012, published 2015).
# Counter-ions that a name gives are not always drawn.
# Assays:
# [1] = tested on: rats subjected to sciatic nerve CCI; experiment: Chronic constrictive injury (CCI) of the sciatic nerve, thermal hyperalgesia, paw withdrawal test; assay type: in vivo, rat
# Experimental: The chronic constrictive injury (CCI) was induced by sciatic nerve ligation according to the method described by Bennett and Xie [Bennett. G. J.; Xie, Y. K. Pain […], 33: 87-107]. Male Wistar rats, weighing 180-240 g, were anesthetized with a mixture of ketamine and xylazine (60 mg/kg and 5 mg/kg, respectively), intraperitoneally. Through an incision of 0.5 cm (parallel and spaced about 10 mm from the left femur) the sciatic nerve was identified. With a thin glass rod, a small segment of sciatic nerve was exposed and four loosely ligatures were placed around the sciatic nerve spaced 1 mm each other using a 3-0 silk suture thread. After the procedure, the skin was sutured and a topical antiseptic was applied.
# To assess animal behavior in response to hyperalgesic phenomenon resulting from sciatic nerve chronic constrictive injury, the model described by Hargreaves and Dubner was used [Hargreaves K., Dubner R., Brown F., Flores C., Joris J. Pain 1988, 32 (1): 77-88]. In this regard, paw withdrawal in response to a painful phenomenon was performed. This is a nociceptive test which involves a peripheral short thermal stimulus induced by the radiant heat of an incandescent lamp bulb. […] Radiant heat has an advantage over the other modes of thermal stimulation in that it produces no tactile stimulus. [Le Bars D., Gozariu M., Cadden S. W. Pharmacology Reviews, 2001, 53 (4), 597-652]. In this assay, a plantar test analgesimeter (ITC Life Science Inc, USA) was used.
# Animals were placed in transparent acrylic boxes with tempered glass pane floor for 40 minutes to acclimate. After this period, the radiant heat was applied to the footpads of animals's hindpaws until they make the movement of paw withdrawal. The paw withdrawal latency was defined as the time recorded from the beginning of the radiant heat stimulus and the paw withdrawal. For each paw, three latency records were made, and the average value was used to define the paw withdrawal time control The maximum time that each animal was exposed to the radiant heat source (cut-off) was defined as three times the paw withdrawal time control, to avoid tissue injuries in animals's paws.
# The day before surgery, rats, defined as “control before surgery”, were placed in acrylic boxes to the paw withdrawal test. On the 7th day after the surgery (CCI), the paw withdrawal test was again performed in order to verify neuropathic pain has been effectively developed in the left paw—defined as “post-surgery control.”
# The paw withdrawal test was assessed during the days 1, 3, and 7 of the treatment (with amitriptyline hydrochloride or the compounds of examples of the instant invention) and on days 1, 3, and 7 after treatment interruption.
# (§1) Differences were considered significant when p<0.05.
# [2] = tested on: Swiss-type male mice; experiment: RotaRod performance test, motor coordination
# Experimental: The assessment of motor coordination in mice, by the rotarod performance test, was carried out to detect any possible sedative or muscle relaxant effect caused by the compounds of the present invention, previously tested in acute and neuropathic pain models. This test was carried out according to the method of described by Dunham & Miya and animal motor coordination was evaluated using RotaRod apparatus [Dunham M. S. & Miya. R. T. (1957). J. Amer. Pharmac. Assoc. Sci. Edit. 1957, 46, 208-209].
# The RotaRod apparatus (Model 412 EFF, Insight Equipements, Brazil) is a device that measures motor coordination and thus evaluates balance alterations in mice. The apparatus consists of an acrylic box splited into four compartments with a rotational cylinder among them. The cylinder rotates at constant speed driven by a motor and regulated to the constant speed mode of 5-37 revolutions per minute (rpm). In this study the speed was set up to 9 rpm.
# To remain on the rotational cylinder, the animal needs to move around, so that the motor coordination can be quantified. The four compartments have drop detection system, through the impact, a microprocessor circuit, for timing the permanence of the animal at the compartment, and for counting the number of falls.
# The day before the test, Swiss-type male mice (19-25 g) were placed on the rotational cylinder, set up to the constant speed mode of 9 rpm for adaptation and learning. A group of 10 mice were used for each tested compound, and the total period spent on the rotational cylinder (in seconds) was recorded for a period of 180 seconds (cut off time) and it was accept a maximum of three falls for each animal. Motor coordination was assessed at times 0 (before treatment), 15, 30, 60 and 120 minutes after compounds administration at a dose of 32.25 μmol/kg.
# All compounds were administered intraperitoneally (ip).
# The Student's t-test was also used to compare means between two experimental groups. Differences were considered significant when p<0.05.
# [3] = tested on: rats subjected to SNL; experiment: Spinal nerve ligation (SNL) L5 model, mechanical allodynia (digital Von Frey); assay type: in vivo, rat; conditions: after 7 days of treatment, 32.25 μmol/kg ip
# Experimental: (§2) This experimental model was proposed by Kim and Chung [Kim, S. H.; Chung, J. M. Pain 1992, 50: 355-363] and consists of ligation of spinal nerves. Male Wistar rats, 180-220 g, were anesthetized with a mixture of ketamine and xylazine (60 mg/kg and 5 mg/kg, respectively) intraperitoneally. After the dorsal region asepsy, an incision was made between L5 and S1. The L6 transverse process was removed for locating the nerves L4 and L5, which were carefully isolated, and tight ligation of the L5 nerve with 6.0 silk thread was made, interrupting flow of the axon of the nerve. After this procedure, para-spinal muscles and skin were sutured, and then a topical antiseptic was applied. False operated animals (sham) were subjected to the same procedure, however the spinal nerve was not ligated.
# To evaluate the development of mechanical allodynia, digital analgesimeter (Model EFF301; Insight Equipments), digitalized version coupled to a pointed filament (Von Frey model variant) was used. This test aims to assess changes in tactile sensitivity in response to a mechanical stimulus as a result of a neural damage. The device consisted of a hand-held force transducer fitted with a sensor tip, through which a pressure with increasing strength is applied against the footpad of the animals hindpaw to assess the threshold of paw withdrawal, that is, the digital analgesimeter records the maximal strength, in grams (g), in which the animal withstands until the paw withdrawal reflex.
# Animals were placed in individual acrylic boxes and let to acclimate for 30 min before the beginning of the test. After this period, the thresholds of hindpaw withdrawal were determinded. For each hindpaw, five records of the withdrawal thresholds were made, and the average for each hindpaw was defined as the paw withdrawal threshold control.
# (§3) The treatment started on the 7th day after surgery. Compounds were diluted in water or DMSO and administered through intraperitoneal route on daily basis, during 7 days, at a dose of […]. The effectiveness of tested compounds was assessed on days 1, 3, and 7 days after treatment, always before the next administration of the compound. Latencies were also assessed on days 1, 3, and 7 after treatment interruption.
# as §1
# [4] = tested on: rats subjected to SNL; experiment: Spinal nerve ligation (SNL) L5 model, thermal hyperalgesia; assay type: in vivo, rat
# Experimental: as §2
# This method aims to evaluate the animal behavior in response to hyperalgesic phenomenon resulting from the injury induced by the ligament of spinal nerve (L5). In this regard, paw withdrawal in response to thermal stimulus was used, and the thermal stimulus was induced by the radiant heat of an incandescent lamp bulb. The paw withdrawal test was performed as described for the assessment of thermal hyperalgesia in the sciatic nerve chronic constrictive injury model.
# as §1, §3
# [5] = first day of treatment, 32.25 μmol/kg ip
# [6] = male, Swiss, mouse, in vivo, 30 min
# [7] = male, Swiss, mouse, in vivo, 60 min
# [8] = male, Swiss, mouse, in vivo, 120 min
# [9] = after 7 days of 32.25 μmol/kg ip
compound,measurement,setting,value
"Cl.Cl.Fc1ccc(-c2n[nH]cc2CCN2CCOCC2)cc1.O (hydrate or solvate) [C9, 4-{2-[3-(4-fluorophenyl)-1H-pyrazol-4-yl]ethyl}morpholine dihydrochloride monohydrate]",melting point,,113 to 126 °C (dec.)
"CCOC(=O)C1(c2ccccc2)CCN(CCc2c[nH]nc2-c2ccc(F)cc2)CC1 [C18, Ethyl 1-{2-[3-(4-fluorophenyl)-1H-pyrazol-4-yl]ethyl}-4-phenylpiperidine-4-carboxylate]","antinociceptive effect, paw withdrawal latency vs post-surgery control",[1]; [5],antinociceptive effects in the first day of treatment
same,melting point,,138 to 139.5 °C
"CN(C)CCC=C1c2ccccc2CCc2ccccc21 [amitriptyline hydrochloride, reference compound]",Mice residence time on the rotational cylinder,[2]; [6],151.0 s
same,Mice residence time on the rotational cylinder,[2]; [7],175.8 s
same,Mice residence time on the rotational cylinder,[2]; [8],161.8 s
same,"paw withdrawal threshold, mechanical allodynia",[3],no significant threshold increase
same,antinociceptive effect after treatment interruption,[1]; [9],the antinociceptive effect was observed only after the first day
same,paw withdrawal latency,"[1]; day 7 of treatment, 32.25 μmol/kg ip daily, p<0.005",significantly increased
same,effect on thermal hyperalgesia after treatment interruption,[4]; [9],the analgesic effect is not maintained
same,"paw withdrawal latency, thermal hyperalgesia","[4]; after 7 days of treatment, 32.25 μmol/kg ip",significantly increased
"CCN1CCN(CCc2c[nH]nc2-c2ccc(F)cc2)CC1.Cl.Cl.Cl.O.O.O (hydrate or solvate) [C12, 1-ethyl-4-{2-[3-(4-fluorophenyl)-1H-pyrazol-4-yl]ethyl}piperazine trihydrochloride trihydrate]",melting point,,226 to 237 °C (dec.)
"Fc1ccc(-c2n[nH]cc2CCN2CCCCC2)cc1 [C1, 1-{2-[3-(4-fluorophenyl)-1H-pyrazol-4-yl]ethyl}piperidine]",melting point,,145 to 146 °C
"Cl.Cl.Fc1ccc(-c2n[nH]cc2CCN2CCCCC2)cc1.O (hydrate or solvate) [C3, 1-{2-[3-(4-fluorophenyl)-1H-pyrazol-4-yl]ethyl}piperidine dihydrochloride monohydrate]",melting point,,277 to 279 °C
"CC(=O)O.Fc1ccc(-c2ncncc2CCN2CCCCC2)cc1 [C6, 1-{2-[4-(4-fluorophenyl)pyrimidin-5-yl]ethyl}piperidinium acetate with 0.8 water molecules]","antinociceptive effect, paw withdrawal latency vs post-surgery control",[1]; [5],antinociceptive effects in the first day of treatment
"Cl.Fc1ccc(-c2nocc2CCN2CCCCC2)cc1 [C5, 1-{2-[3-(4-fluorophenyl)-1,2-oxazol-4-yl]ethyl}piperidine hydrochloride]",Mice residence time on the rotational cylinder,[2]; [6],178.6 s
same,Mice residence time on the rotational cylinder,[2]; [7],173.4 s
same,Mice residence time on the rotational cylinder,[2]; [8],179.2 s
same,Mice residence time on the rotational cylinder,"[2]; male, Swiss, mouse, in vivo, ip, 15 min",180.0 s
same,"antinociceptive effect, paw withdrawal latency vs post-surgery control",[1]; [5],antinociceptive effects in the first day of treatment
"CC(=O)O.OC1(c2ccc(Cl)cc2)CCN(CCc2cncnc2-c2ccc(F)cc2)CC1 [C16, 4-(4-chlorophenyl)-4-hydroxy-1-{2-[4-(4-fluorophenyl)pyrimidin-5-yl]ethyl}piperidinium acetate]",animal residence time on the rotational cylinder compared to controls,"[2]; 15 minutes after administration, 32.25 μmol/kg","equal to the time observed for the negative control, and significantly higher than the time observed for the control amitriptyline hydrochloride"
same,Mice residence time on the rotational cylinder,"[2]; T 15 min after ip administration, 32.25 μmol/kg, 9 rpm, cut off 180 s, mean ± SEM",178.6 s
same,Mice residence time on the rotational cylinder,"[2]; T 30 min after ip administration, 32.25 μmol/kg (diazepam 2 mg/kg), 9 rpm, cut off 180 s, mean ± SEM",178.8 s
same,Mice residence time on the rotational cylinder,"[2]; T 60 min after ip administration, 32.25 μmol/kg (diazepam 2 mg/kg), 9 rpm, cut off 180 s, mean ± SEM",150.8 s
same,Mice residence time on the rotational cylinder,"[2]; T 120 min after ip administration, 32.25 μmol/kg (diazepam 2 mg/kg), 9 rpm, cut off 180 s, mean ± SEM",126.3 s
same,"antinociceptive effect, paw withdrawal latency vs post-surgery control",[1]; [5],antinociceptive effects in the first day of treatment
same,"latency increase, statistical significance","[1]; first day of treatment, 32.25 μmol/kg ip, p<0.05 or p<0.005",the latency increase was statistically significant
